Row | melting point [°C] | Structure (SMILES)
1 | 185 to 190 | CCCCc1ncc(/C=C(\Cc2cc3c(cc2OC)OCO3)C(=O)O)n1-c1ccc(OC)cc1OCc1nnnn1CC [Example 23, (E)-3-[2-Butyl-1-[2-(1-ethyl-1H-tetrazol-5-yl)methoxy-4-methoxyphenyl]-1H-imidazol-5-yl]-2-[(2-methoxy-4,5-methylenedioxyphenyl)methyl]-2-propenoic Acid]
2 | 110 to 118 | CCCCc1ncc(/C=C(\Cc2cc3c(cc2OC)OCO3)C(=O)O)n1-c1ccc(OC)cc1OCc1nnn(CCC)n1 [Example 24, (E)-3-[2-Butyl-1-[2-(2-propyl-2H-tetrazol-5-yl)methoxy-4-methoxyphenyl]-1H-imidazol-5-yl]-2-[(2-methoxy-4,5-methylenedioxyphenyl)methyl]-2-propenoic Acid]

Reference: US6620826B2, “Endothelin receptor antagonists” (SmithKline Beecham Corporation, priority 1994, dated 2003)
